Measurements: patent US20190055256A1, “ANTI-VIRAL DRUG” (DORING INTERNATIONAL GMBH, priority 2016, published 2019)

Experiment: Physical and chemical characteristics: solubility in solvents
Format: physicochemical

sodium salt of 7-methylthio-3-nitro [1, 2, 4] triazolo [5,1-c] [1, 2, 4] triazin-4 (1H)-one
solubility in acetone (solvent: acetone): soluble
solubility in chloroform (solvent: chloroform): insoluble
solubility in dimethylformamide (solvent: dimethylformamide): soluble
solubility in dimethylsulfoxide (solvent: dimethylsulfoxide): soluble
solubility in water (solvent: water): soluble
